target: T1, F508del (Homo sapiens, UniProt P13569, DEL508-508); experiment: Protocol 1: membrane potential optical assay (FLIPR III, voltage sensing dye), identification of potentiator compounds; assay type: cell-based; details: Table 3, compounds of Table 1
T1 construct: expressed in transfected cells
Outline: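 Gating potentiation is read as a membrane-potential fluorescence change (FLIPR III, voltage-sensing dye) after one forskolin addition under a Cl− gradient, with gluconate replacing chloride, pH 7.4. Cells are F508del-expressing NIH3T3 mouse fibroblasts held 24 h at 27 °C and exposed to compound before dye loading.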

T1 sequence (P13569 with tags, fused parts or gaps DEL508-508): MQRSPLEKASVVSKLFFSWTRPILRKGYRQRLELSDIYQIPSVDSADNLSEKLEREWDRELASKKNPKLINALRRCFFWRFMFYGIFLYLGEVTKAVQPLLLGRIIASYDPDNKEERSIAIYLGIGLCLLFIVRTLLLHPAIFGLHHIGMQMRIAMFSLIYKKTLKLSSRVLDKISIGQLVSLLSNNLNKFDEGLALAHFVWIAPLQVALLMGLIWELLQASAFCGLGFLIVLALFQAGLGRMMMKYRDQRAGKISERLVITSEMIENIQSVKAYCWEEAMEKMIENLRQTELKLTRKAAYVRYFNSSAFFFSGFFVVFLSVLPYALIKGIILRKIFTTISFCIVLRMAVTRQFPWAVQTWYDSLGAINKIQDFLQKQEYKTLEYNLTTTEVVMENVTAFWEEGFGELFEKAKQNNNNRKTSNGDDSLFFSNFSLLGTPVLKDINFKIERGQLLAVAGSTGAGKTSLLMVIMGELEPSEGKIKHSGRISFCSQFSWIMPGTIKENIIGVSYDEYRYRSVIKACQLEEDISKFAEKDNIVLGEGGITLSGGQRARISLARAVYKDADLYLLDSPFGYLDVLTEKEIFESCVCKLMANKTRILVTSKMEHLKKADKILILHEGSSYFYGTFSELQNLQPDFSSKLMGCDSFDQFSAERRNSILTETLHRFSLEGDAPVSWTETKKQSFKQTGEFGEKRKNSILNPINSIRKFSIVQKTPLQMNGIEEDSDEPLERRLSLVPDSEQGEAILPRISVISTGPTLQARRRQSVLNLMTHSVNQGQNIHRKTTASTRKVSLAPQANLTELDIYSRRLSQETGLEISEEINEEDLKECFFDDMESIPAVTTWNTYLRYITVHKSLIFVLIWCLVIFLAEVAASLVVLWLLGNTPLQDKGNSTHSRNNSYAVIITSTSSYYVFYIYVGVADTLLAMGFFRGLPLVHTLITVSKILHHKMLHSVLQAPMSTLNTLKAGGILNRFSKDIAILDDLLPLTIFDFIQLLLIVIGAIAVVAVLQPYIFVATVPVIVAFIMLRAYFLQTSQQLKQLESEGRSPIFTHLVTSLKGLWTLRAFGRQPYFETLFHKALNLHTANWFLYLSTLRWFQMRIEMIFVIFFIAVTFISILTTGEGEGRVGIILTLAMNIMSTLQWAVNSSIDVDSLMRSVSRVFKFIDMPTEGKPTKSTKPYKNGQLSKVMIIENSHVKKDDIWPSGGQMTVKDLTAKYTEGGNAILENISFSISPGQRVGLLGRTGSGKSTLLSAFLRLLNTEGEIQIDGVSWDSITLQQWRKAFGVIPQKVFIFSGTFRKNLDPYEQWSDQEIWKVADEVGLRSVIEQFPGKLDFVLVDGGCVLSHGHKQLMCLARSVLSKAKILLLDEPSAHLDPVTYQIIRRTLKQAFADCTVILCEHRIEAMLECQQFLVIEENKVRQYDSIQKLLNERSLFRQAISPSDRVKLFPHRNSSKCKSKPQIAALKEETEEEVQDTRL

| EC30 | SMILES |
| --- | --- |
| ++ (“++” means between 3 uM and 10 uM) | COc1ccc(-c2ccc(C(=O)NS(=O)(=O)c3ccc[nH]c3=O)c(Oc3c(C)cc(C)cc3C)n2)c(F)c1 [Compound 839, 6-(2-fluoro-4-methoxy-phenyl)-N-[(2-oxo-1H-pyridin-3-yl)sulfonyl]-2-(2,4,6-trimethylphenoxy)pyridine-3-carboxamide] |
| +++ (“+++” means <3 uM) | Cc1cc(C)c(Oc2nc(C)c(C)cc2C(=O)NS(=O)(=O)c2cccc(N)n2)c(C)c1 [Compound 841, N-[(6-amino-2-pyridyl)sulfonyl]-5,6-dimethyl-2-(2,4,6-trimethylphenoxy)pyridine-3-carboxamide] |
| +++ (“+++” means <3 uM) | CC1CCN(c2nc(-c3ccc(C(C)C)cc3)ccc2C(=O)NS(=O)(=O)c2cccc(N)n2)CC1 [Compound 847, N-[(6-amino-2-pyridyl)sulfonyl]-6-(4-isopropylphenyl)-2-(4-methyl-1-piperidyl)pyridine-3-carboxamide] |
| +++ (“+++” means <3 uM) | CC(C)CCOc1ccc(-c2ccc(C(=O)NS(=O)(=O)c3cccc(N)n3)c(N3CC(C)CC3(C)C)n2)cn1 (stereo not drawn) [Compound 848, N-[(6-amino-2-pyridyl)sulfonyl]-6-(6-isopentyloxy-3-pyridyl)-2-(2,2,4-trimethylpyrrolidin-1-yl)pyridine-3-carboxamide] |
| + (“+” means greater than 10 uM) | Cc1ccc(-c2nc(-c3cc(F)cc(OC(C)C)c3)ccc2C(=O)NS(=O)(=O)c2ccn[nH]2)cc1 [Compound 849, 6-(3-fluoro-5-isopropoxy-phenyl)-2-(p-tolyl)-N-(1H-pyrazol-5-ylsulfonyl)pyridine-3-carboxamide] |
| +++ (“+++” means <3 uM) | Cc1cc(C)c(Oc2nc(C(F)(F)C(F)(F)F)ccc2C(=O)NS(=O)(=O)c2cccc(N)n2)c(C)c1 [Compound 853, N-[(6-amino-2-pyridyl)sulfonyl]-6-(1,1,2,2,2-pentafluoroethyl)-2-(2,4,6-trimethylphenoxy)pyridine-3-carboxamide] |
| ++ (“++” means between 3 uM and 10 uM) | Cc1cc(C)c(Oc2ncc(C3(C)CC3)cc2C(=O)NS(=O)(=O)c2cccc(N)n2)c(C)c1 [Compound 854, N-[(6-amino-2-pyridyl)sulfonyl]-5-(1-methylcyclopropyl)-2-(2,4,6-trimethylphenoxy)pyridine-3-carboxamide] |
| ++ (“++” means between 3 uM and 10 uM) | Cc1cc(C)c(Oc2nc(-c3ccc4[nH]ncc4c3)ccc2C(=O)NS(=O)(=O)c2cccc(N)n2)c(C)c1 [Compound 856, N-[(6-amino-2-pyridyl)sulfonyl]-6-(1H-indazol-5-yl)-2-(2,4,6-trimethylphenoxy)pyridine-3-carboxamide] |

The remaining lines, values behind:

| SMILES | EC30 |
| --- | --- |
| CC(C)COc1cc(F)cc(-c2ccc(C(=O)NS(=O)(=O)c3cccc(N)n3)c(N3CCCC(C)C3C)n2)c1 (stereo not drawn) [Compound 837, N-[(6-amino-2-pyridyl)sulfonyl]-2-(2,3-dimethyl-1-piperidyl)-6-(3-fluoro-5-isobutoxy-phenyl)pyridine-3-carboxamide] | +++ (“+++” means <3 uM) |
| Cc1cc(C)c(CN2CCc3ccccc3CC2C(=O)NS(=O)(=O)c2cccc(NCCO)n2)c(C)c1 (stereo not drawn) [Compound 838, N-[[6-(2-hydroxyethylamino)-2-pyridyl]sulfonyl]-3-[(2,4,6-trimethylphenyl)methyl]-1,2,4,5-tetrahydro-3-benzazepine-4-carboxamide] | ++ (“++” means between 3 uM and 10 uM) |
| Cc1cc(C)c(CN2C(C(=O)NS(=O)(=O)c3cc(N)ccc3C)c3ccccc3C2(C)C)c(C)c1 (stereo not drawn) [Compound 840, N-(5-amino-2-methyl-phenyl)sulfonyl-3,3-dimethyl-2-[(2,4,6-trimethylphenyl)methyl]isoindoline-1-carboxamide] | +++ (“+++” means <3 uM) |
| CC(C)COc1cc(F)cc(-c2ccc(C(=O)NS(=O)(=O)c3nc(N)cs3)c(N3CC(C)CC3(C)C)n2)c1 (stereo not drawn) [Compound 842, N-(4-aminothiazol-2-yl)sulfonyl-6-(3-fluoro-5-isobutoxy-phenyl)-2-(2,2,4-trimethylpyrrolidin-1-yl)pyridine-3-carboxamide] | +++ (“+++” means <3 uM) |
| CCOC1CCCN(c2nc(-c3cc(F)cc(OCC(C)C)c3)ccc2C(=O)NS(=O)(=O)c2ccn[nH]2)C1 (stereo not drawn) [Compound 843, 2-(3-ethoxy-1-piperidyl)-6-(3-fluoro-5-isobutoxy-phenyl)-N-(1H-pyrazol-5-ylsulfonyl)pyridine-3-carboxamide] | ++ (“++” means between 3 uM and 10 uM) |
| CC1CN(c2nc(-c3cnc(OC(C)C)nc3)ccc2C(=O)NS(=O)(=O)c2cccc(N)n2)C(C)(C)C1 (stereo not drawn) [Compound 844, N-[(6-amino-2-pyridyl)sulfonyl]-6-(2-isopropoxypyrimidin-5-yl)-2-(2,2,4-trimethylpyrrolidin-1-yl)pyridine-3-carboxamide] | ++ (“++” means between 3 uM and 10 uM) |
| CC(C)COc1cc(F)cc(-c2ccc(C(=O)NS(=O)(=O)c3cccc(N)n3)c(N3CCCC34CCC4)n2)c1 [Compound 845, N-[(6-amino-2-pyridyl)sulfonyl]-2-(8-azaspiro[3.4]octan-8-yl)-6-(3-fluoro-5-isobutoxy-phenyl)pyridine-3-carboxamide] | +++ (“+++” means <3 uM) |
| CC(C)CC(C)Oc1cccc(-c2ccc(C(=O)NS(=O)(=O)c3cccc(N)n3)c(N3CCCC3(C)C)n2)n1 (stereo not drawn) [Compound 846, N-[(6-amino-2-pyridyl)sulfonyl]-6-[6-(1,3-dimethylbutoxy)-2-pyridyl]-2-(2,2-dimethylpyrrolidin-1-yl)pyridine-3-carboxamide] | +++ (“+++” means <3 uM) |
| CC(C)COc1cc(F)cc(-c2ccc(C(=O)NS(=O)(=O)c3cccc(N)n3)c(N3CC(C)(C)CC3(C)C)n2)c1 [Compound 850, N-[(6-amino-2-pyridyl)sulfonyl]-6-(3-fluoro-5-isobutoxy-phenyl)-2-(2,2,4,4-tetramethylpyrrolidin-1-yl)pyridine-3-carboxamide] | +++ (“+++” means <3 uM) |
| Cc1cc(OCC(C)C)ncc1-c1ccc(C(=O)NS(=O)(=O)c2cccc(N)n2)c(N2CC(C)CC2(C)C)n1 (stereo not drawn) [Compound 851, N-[(6-amino-2-pyridyl)sulfonyl]-6-(6-isobutoxy-4-methyl-3-pyridyl)-2-(2,2,4-trimethylpyrrolidin-1-yl)pyridine-3-carboxamide] | +++ (“+++” means <3 uM) |
| C[C@@H]1CN(c2nc(Cl)ccc2C(=O)NS(=O)(=O)c2cccc(N)n2)C(C)(C)C1 [Compound 852, N-[(6-amino-2-pyridyl)sulfonyl]-6-chloro-2-[(4S)-2,2,4-trimethylpyrrolidin-1-yl]pyridine-3-carboxamide] | ++ (“++” means between 3 uM and 10 uM) |
| Cc1cc(C)c(CN2Cc3ccccc3CCC2C(=O)NS(=O)(=O)c2ccc[nH]c2=O)c(C)c1 (stereo not drawn) [Compound 855, N-[(2-oxo-1H-pyridin-3-yl)sulfonyl]-2-[(2,4,6-trimethylphenyl)methyl]-1,3,4,5-tetrahydro-2-benzazepine-3-carboxamide] | + (“+” means greater than 10 uM) |
| CC(C)COc1cc(F)cc(-c2ccc(C(=O)NS(=O)(=O)c3cccc(N)n3)c(N3CC4CCCC4C3)n2)c1 (stereo not drawn) [Compound 857, 2-(3,3a,4,5,6,6a-hexahydro-1H-cyclopenta[c]pyrrol-2-yl)-N-[(6-amino-2-pyridyl)sulfonyl]-6-(3-fluoro-5-isobutoxy-phenyl)pyridine-3-carboxamide] | +++ (“+++” means <3 uM) |

Reference: patent US10758534B2 (Vertex Pharmaceuticals Incorporated, priority 2014, dated 2020)
